Measured values reported in US12187728B2 (Raze Therapeutics, Inc., priority 2015, dated 2025).

Target: T1, Human MTHFD2 (Homo sapiens, UniProt P13995)
T1 construct: residues 36-350 in Uniport ID P13995; His6 (N); made in house; host or cells: E. coli
T1 sequence (P13995 36-350): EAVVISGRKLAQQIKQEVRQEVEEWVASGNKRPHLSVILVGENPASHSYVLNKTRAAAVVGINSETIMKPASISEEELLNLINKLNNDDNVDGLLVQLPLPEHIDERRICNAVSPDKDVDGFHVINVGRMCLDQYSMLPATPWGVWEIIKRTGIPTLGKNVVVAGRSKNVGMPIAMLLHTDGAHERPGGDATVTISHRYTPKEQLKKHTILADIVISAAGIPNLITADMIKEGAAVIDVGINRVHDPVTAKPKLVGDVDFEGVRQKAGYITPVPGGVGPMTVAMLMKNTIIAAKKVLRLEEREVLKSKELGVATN
Test: MTHFD2 Activity Assay (dehydrogenase activity, diaphorase/resazurin coupled fluorescence)
Format: biochemical
Conditions: inhibitory activity (IC50 and/or binding constant); 0.2 nM MTHFD2, 11 concentrations
Procedure, shortened: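 Steps: compound + 0.2 nM enzyme, 15 min, pH 8.0 Hepes buffer; add 70 μM CH2-THF, 1 mM NAD+, 100 μM resazurin, diaphorase; 30 min; quench with EDTA; read fluorescence. Data normalized to DMSO (100%) and no-enzyme (0%) wells.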

Row | SMILES | IC50 [nM]
1 | Cn1c(NCCC(C)(C)O)nc2c1c(=O)n(Cc1ccc(Cl)c(Cl)c1)c(=O)n2C [Example 45, 1-[(3,4-dichlorophenyl)methyl]-8-[(3-hydroxy-3-methylbutyl)amino]-3,7-dimethyl-2,3,6,7-tetrahydro-1H-purine-2,6-dione] | 10 to 1000
2 | Cn1cnc2c(=O)n(Cc3ccc(Cl)c(Cl)c3)c(=O)n(C)c21 [Example 253] | > 10000
3 | Cn1c(N[C@@H]2CC[C@H](C(=O)O)C2)nc2c1c(=O)n(Cc1ccc(Cl)c(Cl)c1)c(=O)n2C [Example 50, (1S,3R)-3-({1-[(3,4-dichlorophenyl)methyl]-3,7-dimethyl-2,6-dioxo-2,3,6,7-tetrahydro-1H-purin-8-yl}amino)cyclopentane-1-carboxylic acid] | 10 to 1000
4 | Cn1c(N[C@H]2C[C@@H](CO)C2)nc2c1c(=O)n(Cc1ccc(Cl)c(Cl)c1)c(=O)n2C [Example 261, (±)-1-(3,4-dichlorobenzyl)-8-((cis)-3-(hydroxymethyl)cyclobutylamino)-3,7-dimethyl-1H-purine-2,6(3H,7H)-dione] | 10 to 1000
5 | Cn1c(NC[C@@H](O)CO)nc2c1c(=O)n(Cc1ccc(Cl)cc1)c(=O)n2C [Example 15, 1-[(4-chlorophenyl)methyl]-8-{[(2R)-2,3-dihydroxypropyl]amino}-3,7-dimethyl-2,3,6,7-tetrahydro-1H-purine-2,6-dione] | 5000 to 10000
6 | C[C@@H](CCO)Nc1nc2c(c(=O)n(Cc3ccc4sccc4c3)c(=O)n2C)n1C [Example 51, 1-(1-benzothiophen-5-ylmethyl)-8-{[(2S)-4-hydroxybutan-2-yl]amino}-3,7-dimethyl-2,3,6,7-tetrahydro-1H-purine-2,6-dione] | 10 to 1000
7 | Cn1c(N[C@H]2CC[C@H](O)C2)nc2c1c(=O)n(Cc1ccc(Cl)c(Cl)c1)c(=O)n2C (single isomer, unassigned) [Example 70, 1-(3,4-dichlorobenzyl)-8-((1S,3S)-3-hydroxycyclopentylamino)-3,7-dimethyl-1H-purine-2,6(3H,7H)-dione or 1-(3,4-dichlorobenzyl)-8-((1R,3R)-3-hydroxycyclopentylamino)-3,7-dimethyl-1H-purine-2,6(3H,7H)-dione] | 10 to 1000
8 | Cn1c(N[C@H]2CCC[C@H](O)C2)nc2c1c(=O)n(Cc1ccc(Cl)c(Cl)c1)c(=O)n2C (single isomer, unassigned) [Example 80, 1-(3,4-dichlorobenzyl)-8-((1S,3S)-3-hydroxycyclohexylamino)-3,7-dimethyl-1H-purine-2,6(3H,7H)-dione or 1-(3,4-dichlorobenzyl)-8-((1R,3R)-3-hydroxycyclohexylamino)-3,7-dimethyl-1H-purine-2,6(3H,7H)-dione] | 10 to 1000
9 | Cn1c(N[C@H]2C[C@H](CO)C2)nc2c1c(=O)n(Cc1ccc(Cl)c(Cl)c1)c(=O)n2C [Example 268] | 10 to 1000
10 | Cn1c(=O)n(Cc2ccc(Cl)c(Cl)c2)c(=O)c2c1nc(NC1CCCC(C(=O)O)C1)n2CC(N)=O (stereo not shown) [Example 306, 3-(7-(2-amino-2-oxoethyl)-1-(3,4-dichlorobenzyl)-3-methyl-2,6-dioxo-2,3,6,7-tetrahydro-1H-purin-8-ylamino)cyclohexanecarboxylic acid] | 10 to 1000
11 | Cn1c(NC2CNC(=O)C2)nc2c1c(=O)n(Cc1ccc(Cl)c(Cl)c1)c(=O)n2C (racemic) [Example 88, (±)-1-[(3,4-dichlorophenyl)methyl]-3,7-dimethyl-8-[(5-oxopyrrolidin-3-yl)amino]-2,3,6,7-tetrahydro-1H-purine-2,6-dione] | 10 to 1000
12 | Cn1cnc2c1c(=O)n(Cc1ccc(Cl)c(C#N)c1)c(=O)n2C [Example 256, 2-chloro-5-((3,7-dimethyl-2,6-dioxo-2,3,6,7-tetrahydro-1H-purin-1-yl)methyl)benzonitrile] | 1000 to 5000
13 | Cn1c(N[C@@H]2CC[C@H](CO)C2)nc2c1c(=O)n(Cc1ccc(Cl)c(Cl)c1)c(=O)n2C (stereo in doubt) [Example 275, 1-(3,4-dichlorobenzyl)-8-((1R,3S)-3-(hydroxymethyl)cyclopentylamino)-3,7-dimethyl-1H-purine-2,6(3H,7H)-dione] | 10 to 1000
14 | Cn1c(NC2CNC2)nc2c1c(=O)n(Cc1ccc(Cl)c(Cl)c1)c(=O)n2C [Example 65, 8-[(azetidin-3-yl)amino]-1-[(3,4-dichlorophenyl)methyl]-3,7-dimethyl-2,3,6,7-tetrahydro-1H-purine-2,6-dione] | 1000 to 5000
15 | Cn1c(Cn2c(=O)c3c(nc(N4CC(O)C4)n3C)n(C)c2=O)cc2cc(Cl)ccc21 [Example 197, 1-((5-chloro-1-methyl-1H-indol-2-yl)methyl)-8-(3-hydroxyazetidin-1-yl)-3,7-dimethyl-1H-purine-2,6(3H,7H)-dione] | 10 to 1000
16 | Cn1c(=O)n(Cc2ccc(Cl)c(Cl)c2)c(=O)c2c1ncn2CCO [Example 248, 1-(3,4-dichlorobenzyl)-7-(2-hydroxyethyl)-3-methyl-1H-purine-2,6(3H,7H)-dione] | 5000 to 10000
17 | Cn1c(NCc2cn[nH]c2)nc2c1c(=O)n(Cc1ccc(Cl)c(Cl)c1)c(=O)n2C [Example 42, 1-[(3,4-dichlorophenyl)methyl]-3,7-dimethyl-8-[(1H-pyrazol-4-ylmethyl)amino]-2,3,6,7-tetrahydro-1H-purine-2,6-dione] | 1000 to 5000
18 | CC(=O)NCCNc1nc2c(c(=O)n(Cc3ccc(Cl)c(Cl)c3)c(=O)n2C)n1C [Example 22, N-[2-({1-[(3,4-dichlorophenyl)methyl]-3,7-dimethyl-2,6-dioxo-2,3,6,7-tetrahydro-1H-purin-8-yl}amino)ethyl]acetamide] | 10 to 1000
19 | Cc1ccc2c(c1)cc(Cn1c(=O)c3c(nc(N[C@H]4CC[C@@H](O)C4)n3C)n(C)c1=O)n2C [Example 185, 1-((1,5-dimethyl-1H-indol-2-yl)methyl)-8-((1S,3R)-3-hydroxycyclopentylamino)-3,7-dimethyl-1H-purine-2,6(3H,7H)-dione] | 10 to 1000

The remaining lines, values ahead:

Row | IC50 [nM] | SMILES
20 | 10 to 1000 | Cn1c(/C(=N/O)c2ccncc2)nc2c1c(=O)n(Cc1cc3c(Cl)cccc3[nH]1)c(=O)n2C [Example 468, (E)-1-((4-chloro-1H-indol-2-yl)methyl)-8-((hydroxyimino)(pyridin-4-yl)methyl)-3,7-dimethyl-1H-purine-2,6(3H,7H)-dione or (Z)-1-((4-chloro-1H-indol-2-yl)methyl)-8-((hydroxyimino)(pyridin-4-yl)methyl)-3,7-dimethyl-1H-purine-2,6(3H,7H)-dione]
21 | 10 to 1000 | Cn1c(Nc2ccc(CC(=O)O)cc2)nc2c1c(=O)n(Cc1ccc(Cl)c(Cl)c1)c(=O)n2C [Example 288, 2-(4-((1-(3,4-dichlorobenzyl)-3,7-dimethyl-2,6-dioxo-2,3,6,7-tetrahydro-1H-purin-8-yl)amino)phenyl)acetic acid]
22 | 1000 to 5000 | CC(=O)Nc1nc2c(c(=O)n(Cc3ccc(Cl)c(Cl)c3)c(=O)n2C)n1C [Example 274, N-[1-[(3,4-dichlorophenyl)methyl]-3,7-dimethyl-2,6-dioxo-purin-8-yl]acetamide]
23 | 10 to 1000 | COc1cc(Nc2nc3c(c(=O)n(Cc4cc5c(Cl)cccc5[nH]4)c(=O)n3C)n2C)ccn1 [Example 333, 1-[(4-chloro-1H-indol-2-yl)methyl]-8-[(2-methoxy-4-pyridyl)amino]-3,7-dimethyl-purine-2,6-dione]
24 | 1000 to 5000 | Cn1c(Nc2ccccc2)nc2c1c(=O)n(Cc1ccc(Cl)c(Cl)c1)c(=O)n2C [Example 127, 1-(3,4-dichlorobenzyl)-3,7-dimethyl-8-(phenylamino)-1H-purine-2,6(3H,7H)-dione]
25 | 1000 to 5000 | Cn1c(Nc2cccnn2)nc2c1c(=O)n(Cc1cc3cc(Cl)ccc3[nH]1)c(=O)n2C [Example 200, 1-((5-chloro-1H-indol-2-yl)methyl)-3,7-dimethyl-8-(pyridazin-3-ylamino)-1H-purine-2,6(3H,7H)-dione]
26 | 1000 to 5000 | Cn1c(NCc2ccccn2)nc2c1c(=O)n(Cc1ccc(Cl)c(Cl)c1)c(=O)n2C [Example 139, 1-(3,4-dichlorobenzyl)-3,7-dimethyl-8-(pyridin-2-ylmethylamino)-1H-purine-2,6(3H,7H)-dione]
27 | 5000 to 10000 | Cn1c(Nc2ncco2)nc2c1c(=O)n(Cc1ccc(Cl)c(Cl)c1)c(=O)n2C [Example 123, 1-(3,4-dichlorobenzyl)-3,7-dimethyl-8-(oxazol-2-ylamino)-1H-purine-2,6(3H,7H)-dione]
28 | 10 to 1000 | Cn1c(Nc2ccc(C(=O)O)cc2)nc2c1c(=O)n(Cc1cc3c(Cl)cccc3[nH]1)c(=O)n2C [Example 331, 4-[[1-[(4-chloro-1H-indol-2-yl)methyl]-3,7-dimethyl-2,6-dioxo-purin-8-yl]amino]benzoic acid]
29 | 10 to 1000 | Cc1cccc2cc(Cn3c(=O)c4c(nc(Nc5ccncc5)n4C)n(C)c3=O)[nH]c12 [Example 365, 3,7-dimethyl-1-[(7-methyl-1H-indol-2-yl)methyl]-8-(4-pyridylamino)purine-2,6-dione]
30 | 1000 to 5000 | Cn1cnc2c1c(=O)n(Cc1cc3cc(Cl)ccc3[nH]1)c(=O)n2C [Example 240, 1-((5-chloro-1H-indol-2-yl)methyl)-3,7-dimethyl-1H-purine-2,6(3H,7H)-dione]
31 | 10 to 1000 | Cn1c(Nc2ccc(S(C)(=O)=O)cc2)nc2c1c(=O)n(Cc1cc3c(Cl)cccc3[nH]1)c(=O)n2C [Example 367, 1-[(4-chloro-1H-indol-2-yl)methyl]-3,7-dimethyl-8-(4-methylsulfonylanilino)purine-2,6-dione]
